Source: US12486253B2, “Therapeutics for the degradation of mutant BRAF” (C4 THERAPEUTICS, INC., priority 2021, dated 2025)
Like-named read-outs stand apart in the source and are kept apart here.

Target: BRAF V600E (Homo sapiens, UniProt P15056, V600E)
Test: HiBiT cellular BRAF^V600E degradation assay
Assay type: cell-based
Conditions: for DC50: concentration at which 50% of total cellular BRAF^V600E is degraded; for Emax: read-out: HiBit 24 h Emax
[1] = A375.10 cells, 24 h, residual protein remaining in the cell

Chain of BRAF V600E (P15056 whole entry V600E): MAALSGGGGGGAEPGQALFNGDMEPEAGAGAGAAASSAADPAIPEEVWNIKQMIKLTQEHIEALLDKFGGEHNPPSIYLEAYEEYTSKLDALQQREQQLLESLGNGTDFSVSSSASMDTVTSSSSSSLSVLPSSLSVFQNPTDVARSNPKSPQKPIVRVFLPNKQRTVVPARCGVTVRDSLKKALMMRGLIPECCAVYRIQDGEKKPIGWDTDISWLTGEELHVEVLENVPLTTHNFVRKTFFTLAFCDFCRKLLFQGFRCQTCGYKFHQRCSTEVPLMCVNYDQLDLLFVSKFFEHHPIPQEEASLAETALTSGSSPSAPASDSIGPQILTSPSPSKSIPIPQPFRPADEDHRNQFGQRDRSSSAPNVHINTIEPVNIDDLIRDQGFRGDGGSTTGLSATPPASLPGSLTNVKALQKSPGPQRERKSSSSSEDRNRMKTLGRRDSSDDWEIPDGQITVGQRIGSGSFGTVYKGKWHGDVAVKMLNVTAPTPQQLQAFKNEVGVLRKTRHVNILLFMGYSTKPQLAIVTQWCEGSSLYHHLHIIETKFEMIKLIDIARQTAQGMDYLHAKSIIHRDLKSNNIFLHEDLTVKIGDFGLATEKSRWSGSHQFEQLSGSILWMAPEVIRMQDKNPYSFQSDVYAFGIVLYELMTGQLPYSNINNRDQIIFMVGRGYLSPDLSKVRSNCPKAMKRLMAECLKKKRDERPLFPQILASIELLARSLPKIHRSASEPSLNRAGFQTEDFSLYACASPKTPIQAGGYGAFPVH

Row | DC50 (A375.10 cells, 24 h) [nM] | Emax [1] [%] | Structure (SMILES) | Emax [%]
1 | 16.4 | 8.4 | CCN(C)S(=O)(=O)Nc1ccc(F)c(Oc2ccc3ncn(-c4cnc(N5CCN(C(=O)CN6CCC(c7ccc(N[C@H]8CCC(=O)NC8=O)cc7F)CC6)CC5)nc4)c(=O)c3c2OC)c1C#N [Example 100, 6-[2-cyano-3-[[ethyl(methyl)sulfamoyl]amino]-6-fluorophenoxy]-3-[2-[4-[2-[4-[4-[[(3S)-2,6-dioxopiperidin-3-yl]amino]-2-fluorophenyl]piperidin-1-yl]acetyl]piperazin-1-yl]pyrimidin-5-yl]-5-methoxy-4-oxoquinazoline] | 
2 | 27.7 | 11.6 | CCN(C)S(=O)(=O)Nc1ccc(F)c(Oc2ccc3ncn(-c4cnc(N5CCN(C(=O)CN6CCC(c7ccc(N[C@@H]8CCC(=O)NC8=O)cc7F)CC6)CC5)nc4)c(=O)c3c2N)c1C#N [Example 101, 5-amino-6-[2-cyano-3-[[ethyl(methyl)sulfamoyl]amino]-6-fluorophenoxy]-3-[2-[4-[2-[4-[4-[[(3R)-2,6-dioxopiperidin-3-yl]amino]-2-fluorophenyl]piperidin-1-yl]acetyl]piperazin-1-yl]pyrimidin-5-yl]-4-oxoquinazoline] | 
3 | 17.8 | 10.9 | N#Cc1c(NS(=O)(=O)C2CCCC2)ccc(F)c1Oc1ccc2ncn(-c3cnc(N4CCN(C(=O)CN5CCC(c6ccc(N[C@@H]7CCC(=O)NC7=O)cc6F)CC5)CC4)nc3)c(=O)c2c1 [Example 108, N-[2-cyano-3-[3-[2-[4-[2-[4-[4-[[(3R)-2,6-dioxopiperidin-3-yl]amino]-2-fluorophenyl]piperidin-1-yl]acetyl]piperazin-1-yl]pyrimidin-5-yl]-4-oxoquinazolin-6-yl]oxy-4-fluorophenyl]cyclopentanesulfonamide] | 
4 | 12.5 | 9.04 | N#Cc1c(NS(=O)(=O)C2CCCC2)ccc(F)c1Oc1ccc2ncn(-c3cnc(N4CCN(C(=O)CN5CCC(c6ccc(N[C@H]7CCC(=O)NC7=O)cc6F)CC5)CC4)nc3)c(=O)c2c1 [Example 109, N-[2-cyano-3-[3-[2-[4-[2-[4-[4-[[(3S)-2,6-dioxopiperidin-3-yl]amino]-2-fluorophenyl]piperidin-1-yl]acetyl]piperazin-1-yl]pyrimidin-5-yl]-4-oxoquinazolin-6-yl]oxy-4-fluorophenyl]cyclopentanesulfonamide] | 
5 | 42.5 | 8.22 | CO[C@H]1CCN(S(=O)(=O)Nc2ccc(F)c(Oc3ccc4ncn(-c5cnc(N6CCN(C(=O)CN7CCC(c8ccc(N[C@@H]9CCC(=O)NC9=O)cc8F)CC7)CC6)nc5)c(=O)c4c3)c2C#N)C1 [Example 110, (3S)—N-[2-cyano-3-[3-[2-[4-[2-[4-[4-[[(3R)-2,6-dioxopiperidin-3-yl]amino]-2-fluorophenyl]piperidin-1-yl]acetyl]piperazin-1-yl]pyrimidin-5-yl]-4-oxoquinazolin-6-yl]oxy-4-fluorophenyl]-3-methoxypyrrolidine-1-sulfonamide] | 
6 | 18.6 | 10.3 | CO[C@H]1CCN(S(=O)(=O)Nc2ccc(F)c(Oc3ccc4ncn(-c5cnc(N6CCN(C(=O)CN7CCC(c8ccc(N[C@H]9CCC(=O)NC9=O)cc8F)CC7)CC6)nc5)c(=O)c4c3)c2C#N)C1 [Example 111, (3S)—N-[2-cyano-3-[3-[2-[4-[2-[4-[4-[[(3S)-2,6-dioxopiperidin-3-yl]amino]-2-fluorophenyl]piperidin-1-yl]acetyl]piperazin-1-yl]pyrimidin-5-yl]-4-oxoquinazolin-6-yl]oxy-4-fluorophenyl]-3-methoxypyrrolidine-1-sulfonamide] | 
7 | 6.47 | 8.79 | CC(C)S(=O)(=O)Nc1ccc(F)c(Oc2ccc3ncn(-c4cnc(N5CCN(C(=O)CN6CCC(c7ccc(N[C@H]8CCC(=O)NC8=O)cc7F)CC6)CC5)nc4)c(=O)c3c2)c1C#N [Example 112, N-[2-cyano-3-[3-[2-[4-[2-[4-[4-[[(3S)-2,6-dioxopiperidin-3-yl]amino]-2-fluorophenyl]piperidin-1-yl]acetyl]piperazin-1-yl]pyrimidin-5-yl]-4-oxoquinazolin-6-yl]oxy-4-fluorophenyl]propane-2-sulfonamide] | 
8 | 29.7 | 11.1 | N#Cc1c(NS(=O)(=O)N2CCCCC2)ccc(F)c1Oc1ccc2ncn(-c3cnc(N4CCN(C(=O)CN5CCC(c6ccc(N[C@H]7CCC(=O)NC7=O)cc6F)CC5)CC4)nc3)c(=O)c2c1 [Example 113, N-[2-cyano-3-[3-[2-[4-[2-[4-[4-[[(3S)-2,6-dioxopiperidin-3-yl]amino]-2-fluorophenyl]piperidin-1-yl]acetyl]piperazin-1-yl]pyrimidin-5-yl]-4-oxoquinazolin-6-yl]oxy-4-fluorophenyl]piperidine-1-sulfonamide] | 
9 | 8.33 | 9.6 | N#Cc1c(NS(=O)(=O)C2CC2)ccc(F)c1Oc1ccc2ncn(-c3cnc(N4CCN(C(=O)CN5CCC(c6ccc(N[C@H]7CCC(=O)NC7=O)cc6F)CC5)CC4)nc3)c(=O)c2c1 [Example 114, N-[2-cyano-3-[3-[2-[4-[2-[4-[4-[[(3S)-2,6-dioxopiperidin-3-yl]amino]-2-fluorophenyl]piperidin-1-yl]acetyl]piperazin-1-yl]pyrimidin-5-yl]-4-oxoquinazolin-6-yl]oxy-4-fluorophenyl]cyclopropanesulfonamide] | 
10 | 16.1 | 12.8 | N#Cc1c(NS(=O)(=O)C2CC2)ccc(F)c1Oc1ccc2ncn(-c3cnc(N4CCN(C(=O)CN5CCC(c6ccc(N[C@@H]7CCC(=O)NC7=O)cc6F)CC5)CC4)nc3)c(=O)c2c1 [Example 115, N-[2-cyano-3-[3-[2-[4-[2-[4-[4-[[(3R)-2,6-dioxopiperidin-3-yl]amino]-2-fluorophenyl]piperidin-1-yl]acetyl]piperazin-1-yl]pyrimidin-5-yl]-4-oxoquinazolin-6-yl]oxy-4-fluorophenyl]cyclopropanesulfonamide] | 
11 | 17.1 | 9.01 | N#Cc1c(NS(=O)(=O)N2CC[C@@H](F)C2)ccc(F)c1Oc1ccc2ncn(-c3cnc(N4CCN(C(=O)CN5CCC(c6ccc(N[C@H]7CCC(=O)NC7=O)cc6F)CC5)CC4)nc3)c(=O)c2c1 [Example 116, (3R)—N-[2-cyano-3-[3-[2-[4-[2-[4-[4-[[(3S)-2,6-dioxopiperidin-3-yl]amino]-2-fluorophenyl]piperidin-1-yl]acetyl]piperazin-1-yl]pyrimidin-5-yl]-4-oxoquinazolin-6-yl]oxy-4-fluorophenyl]-3-fluoropyrrolidine-1-sulfonamide] | 
12 | 38.3 | 9.02 | COC1CN(S(=O)(=O)Nc2ccc(F)c(Oc3ccc4ncn(-c5cnc(N6CCN(C(=O)CN7CCC(c8ccc(N[C@H]9CCC(=O)NC9=O)cc8F)CC7)CC6)nc5)c(=O)c4c3)c2C#N)C1 [Example 117, N-[2-cyano-3-[3-[2-[4-[2-[4-[4-[[(3S)-2,6-dioxopiperidin-3-yl]amino]-2-fluorophenyl]piperidin-1-yl]acetyl]piperazin-1-yl]pyrimidin-5-yl]-4-oxoquinazolin-6-yl]oxy-4-fluorophenyl]-3-methoxyazetidine-1-sulfonamide] | 
13 | 18.7 | 9.98 | CC(C)S(=O)(=O)Nc1ccc(F)c(Oc2ccc3ncn(-c4cnc(N5CCN(C(=O)CN6CCC(c7ccc(N[C@@H]8CCC(=O)NC8=O)cc7F)CC6)CC5)nc4)c(=O)c3c2)c1C#N [Example 118, N-[2-cyano-3-[3-[2-[4-[2-[4-[4-[[(3R)-2,6-dioxopiperidin-3-yl]amino]-2-fluorophenyl]piperidin-1-yl]acetyl]piperazin-1-yl]pyrimidin-5-yl]-4-oxoquinazolin-6-yl]oxy-4-fluorophenyl]propane-2-sulfonamide] | 
14 | 46.9 | 12.8 | CN(CC(F)F)S(=O)(=O)Nc1ccc(F)c(Oc2ccc3ncn(-c4cnc(N5CCN(C(=O)CN6CCC(c7ccc(N[C@@H]8CCC(=O)NC8=O)cc7F)CC6)CC5)nc4)c(=O)c3c2)c1C#N [Example 119, 6-[2-cyano-3-[[2,2-difluoroethyl(methyl)sulfamoyl]amino]-6-fluorophenoxy]-3-[2-[4-[2-[4-[4-[[(3R)-2,6-dioxopiperidin-3-yl]amino]-2-fluorophenyl]piperidin-1-yl]acetyl]piperazin-1-yl]pyrimidin-5-yl]-4-oxoquinazoline] | 

Row | Structure (SMILES) | DC50 (A375.10 cells, 24 h) [nM] | Emax [1] [%] | Emax [%]
15 | N#Cc1c(NS(=O)(=O)C2CCCCC2)ccc(F)c1Oc1ccc2ncn(-c3cnc(N4CCN(C(=O)CN5CCC(c6ccc(N[C@H]7CCC(=O)NC7=O)cc6F)CC5)CC4)nc3)c(=O)c2c1 [Example 105, N-[2-cyano-3-[3-[2-[4-[2-[4-[4-[[(3S)-2,6-dioxopiperidin-3-yl]amino]-2-fluorophenyl]piperidin-1-yl]acetyl]piperazin-1-yl]pyrimidin-5-yl]-4-oxoquinazolin-6-yl]oxy-4-fluorophenyl]cyclohexanesulfonamide] | 17.7 |  | 11.8
16 | N#Cc1c(NS(=O)(=O)N2CCCCC2)ccc(F)c1Oc1ccc2ncn(-c3cnc(N4CCN(C(=O)CN5CCC(c6ccc(N[C@@H]7CCC(=O)NC7=O)cc6F)CC5)CC4)nc3)c(=O)c2c1 [Example 106, N-[2-cyano-3-[3-[2-[4-[2-[4-[4-[[(3R)-2,6-dioxopiperidin-3-yl]amino]-2-fluorophenyl]piperidin-1-yl]acetyl]piperazin-1-yl]pyrimidin-5-yl]-4-oxoquinazolin-6-yl]oxy-4-fluorophenyl]piperidine-1-sulfonamide] | 43.6 |  | 16.7
17 | N#Cc1c(NS(=O)(=O)N2CCCC2)ccc(F)c1Oc1ccc2ncn(-c3cnc(N4CCN(C(=O)CN5CCC(c6ccc(N[C@H]7CCC(=O)NC7=O)cc6F)CC5)CC4)nc3)c(=O)c2c1 [Example 107, N-[2-cyano-3-[3-[2-[4-[2-[4-[4-[[(3S)-2,6-dioxopiperidin-3-yl]amino]-2-fluorophenyl]piperidin-1-yl]acetyl]piperazin-1-yl]pyrimidin-5-yl]-4-oxoquinazolin-6-yl]oxy-4-fluorophenyl]pyrrolidine-1-sulfonamide] | 12.9 |  | 9.8
